In brackets after ≈: the same amount, converted by molar mass.
Columns and labels:
Format in all cases: cell-based
[1] = test system: Staphylococcus aureus FDA 209PJc-1; experiment: Antibacterial activity, agar-dilution MIC, organism No. 1; settings: Staphylococcus aureus, FDA209PJC1; Organism No. 1, bouillon-agar; read-out: Minimum Inhibitory Concentration
Outline: (§1)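 For each organism the specimen was serially diluted into bouillon agar, and inhibition was scored to give the MIC in μg/ml of culture medium.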

[2] = test system: Staphylococcus aureus Terajima; experiment: Antibacterial activity, agar-dilution MIC, organism No. 2; settings: Staphylococcus aureus; Organism No. 2, bouillon-agar; read-out: Minimum Inhibitory Concentration
Outline: as §1

[3] = test system: Staphylococcus aureus MS 353; experiment: Antibacterial activity, agar-dilution MIC, organism No. 3; settings: Staphylococcus aureus, MS353; Organism No. 3, bouillon-agar; read-out: Minimum Inhibitory Concentration
Outline: as §1

[4] = test system: Streptococcus pyogenes Cook; experiment: Antibacterial activity, agar-dilution MIC, organism No. 4; settings: Streptococcus pyogenes; Organism No. 4, bouillon-agar; read-out: Minimum Inhibitory Concentration
Outline: as §1

[5] = test system: Escherichia coli NIHJ-JC-2; experiment: Antibacterial activity, agar-dilution MIC, organism No. 5; settings: Escherichia coli, NIHJJC2; Organism No. 5, bouillon-agar; read-out: Minimum Inhibitory Concentration
Outline: as §1

[6] = test system: Escherichia coli K12 C600 IAM 1264; experiment: Antibacterial activity, agar-dilution MIC, organism No. 6; settings: Escherichia coli, IAM1264; Organism No. 6, bouillon-agar; read-out: Minimum Inhibitory Concentration
Outline: as §1

[7] = test system: Klebsiella pneumoniae PCI-602; experiment: Antibacterial activity, agar-dilution MIC, organism No. 7; settings: Klebsiella pneumoniae, PCI602; Organism No. 7, bouillon-agar; read-out: Minimum Inhibitory Concentration
Outline: as §1

[8] = test system: Salmonella typhimurium IID 971; experiment: Antibacterial activity, agar-dilution MIC, organism No. 8; settings: Salmonella enterica; Organism No. 8, bouillon-agar; read-out: Minimum Inhibitory Concentration
Outline: as §1

[9] = test system: Salmonella typhi 901; experiment: Antibacterial activity, agar-dilution MIC, organism No. 9; settings: Salmonella enterica, TYPHI, read-out: Minimum Inhibitory Concentration
Outline: as §1

[10] = test system: Salmonella paratyphi-A 1015; experiment: Antibacterial activity, agar-dilution MIC, organism No. 10; settings: Salmonella enterica, PARATYPHI, read-out: Minimum Inhibitory Concentration
Outline: as §1

[11] = test system: Salmonella shottmuelleri 8006; experiment: Antibacterial activity, agar-dilution MIC, organism No. 11; settings: Salmonella, 8006; Organism No. 11, bouillon-agar; read-out: Minimum Inhibitory Concentration
Outline: as §1

[12] = test system: Salmonella enteritidis G 14; experiment: Antibacterial activity, agar-dilution MIC, organism No. 12; settings: Salmonella enterica, ENTERITIDIS; Organism No. 12, bouillon-agar; read-out: Minimum Inhibitory Concentration
Outline: as §1

[13] = test system: Serratia marcescens IAM 1184; experiment: Antibacterial activity, agar-dilution MIC, organism No. 13; settings: Serratia marcescens, IAM1184; Organism No. 13, bouillon-agar; read-out: Minimum Inhibitory Concentration
Outline: as §1

[14] = test system: Bacillus subtilis ATCC 6633; experiment: Antibacterial activity, agar-dilution MIC, organism No. 14; settings: Bacillus subtilis, ATCC6633; Organism No. 14, bouillon-agar; read-out: Minimum Inhibitory Concentration
Outline: as §1

[15] = test system: Pseudomonas aeruginosa IFO 3445; experiment: Antibacterial activity, agar-dilution MIC, organism No. 15; settings: Pseudomonas aeruginosa, IFO3445; Organism No. 15, bouillon-agar; read-out: Minimum Inhibitory Concentration
Outline: as §1

[16] = test system: Pseudomonas aeruginosa NCTC 10490; experiment: Antibacterial activity, agar-dilution MIC, organism No. 16; settings: Pseudomonas aeruginosa, NCTC10490; Organism No. 16, bouillon-agar; read-out: Minimum Inhibitory Concentration
Outline: as §1

[17] = test system: Pseudomonas aeruginosa PAO 1; experiment: Antibacterial activity, agar-dilution MIC, organism No. 17; settings: Pseudomonas aeruginosa, PAO1; Organism No. 17, bouillon-agar; read-out: Minimum Inhibitory Concentration
Outline: as §1

[18] = test system: Proteus morganii IFO 3848; experiment: Antibacterial activity, agar-dilution MIC, organism No. 18; settings: Morganella morganii, IFO3848; Organism No. 18, bouillon-agar; read-out: Minimum Inhibitory Concentration
Outline: as §1

[19] = test system: Proteus mirabilis IFO 3849; experiment: Antibacterial activity, agar-dilution MIC, organism No. 19; settings: Proteus mirabilis, IFO3849; Organism No. 19, bouillon-agar; read-out: Minimum Inhibitory Concentration
Outline: as §1

[20] = test system: Proteus vulgaris OX-19; experiment: Antibacterial activity, agar-dilution MIC, organism No. 20; settings: Proteus vulgaris, OX19; Organism No. 20, bouillon-agar; read-out: Minimum Inhibitory Concentration
Outline: as §1

[21] = test system: Proteus vulgaris HX-19; experiment: Antibacterial activity, agar-dilution MIC, organism No. 21; settings: Proteus vulgaris, HX19; Organism No. 21, bouillon-agar; read-out: Minimum Inhibitory Concentration
Outline: as §1

[22] = test system: Proteus rettgeri IFO 3850; experiment: Antibacterial activity, agar-dilution MIC, organism No. 22; settings: Providencia rettgeri, IFO3850; Organism No. 22, bouillon-agar; read-out: Minimum Inhibitory Concentration
Outline: as §1

[23] = test system: Enterobacter aerogenes ATCC 13048; experiment: Antibacterial activity, agar-dilution MIC, organism No. 23; settings: Klebsiella aerogenes, ATCC13048; Organism No. 23, bouillon-agar; read-out: Minimum Inhibitory Concentration
Outline: as §1

[24] = test system: Enterobacter cloacae 963; experiment: Antibacterial activity, agar-dilution MIC, organism No. 24; settings: Enterobacter cloacae, 963; Organism No. 24, bouillon-agar; read-out: Minimum Inhibitory Concentration
Outline: as §1

[25] = test system: Micrococcus luteus ATCC 9341; experiment: Antibacterial activity, agar-dilution MIC, organism No. 25; settings: Micrococcus luteus, ATCC9341; Organism No. 25, bouillon-agar; read-out: Minimum Inhibitory Concentration
Outline: as §1

[26] = test system: Streptococcus pyogenes IFO 3340; experiment: Antibacterial activity, agar-dilution MIC, organism No. 26; settings: Streptococcus pyogenes, IFO3340; Organism No. 26, bouillon-agar; read-out: Minimum Inhibitory Concentration
Outline: as §1

[27] = test system: Streptococcus faecium IFO 3826; experiment: Antibacterial activity, agar-dilution MIC, organism No. 27; settings: Enterococcus faecium, IFO3826; Organism No. 27, bouillon-agar; read-out: Minimum Inhibitory Concentration
Outline: as §1

[28] = test system: Mycoplasma pneumoniae IID817; experiment: Antimycoplasmal activity, MIC by phenol red colour change, organism No. 28; settings: Mycoplasma, IID817; Organism No. 28, PPLO broth + 1% glucose, 37° C.; read-out: Minimum Inhibitory Concentration (MIC)
Procedure: Mycoplasma pneumoniae IID817 was used as the test microorganism in a culture medium prepared by adding 1% of glucose to "PPLO broth (manufactured by Difco Co.) liquid culture medium" at 37° C. with phenol red as an indicator, thereby culturing the test microorganism.

[29] = test system: Candida albicans IAM 4905; experiment: Antifungal activity, agar-dilution MIC, organism No. 29; settings: Candida albicans, IAM4905; Organism No. 29, bouillon-agar; read-out: Minimum Inhibitory Concentration
Outline: as §1

[30] = test system: Aspergillus niger IFO 6342; experiment: Antifungal activity, agar-dilution MIC, organism No. 30; settings: Aspergillus niger, IFO6342; Organism No. 30, bouillon-agar; read-out: Minimum Inhibitory Concentration
Outline: as §1

Structure (SMILES) | MIC [1] [µg/mL] | MIC [2] [µg/mL] | MIC [3] [µg/mL] | MIC [4] [µg/mL] | MIC [5] [µg/mL] | MIC [6] [µg/mL] | MIC [7] [µg/mL] | MIC [8] [µg/mL] | MIC [9] [µg/mL] | MIC [10] [µg/mL] | MIC [11] [µg/mL] | MIC [12] [µg/mL] | MIC [13] [µg/mL] | MIC [14] [µg/mL] | MIC [15] [µg/mL] | MIC [16] [µg/mL] | MIC [17] [µg/mL] | MIC [18] [µg/mL] | MIC [19] [µg/mL] | MIC [20] [µg/mL] | also measured
[C-]#[N+]C12CC3(/C=C/C(=O)Nc4ccc(I)cc4)OC3C1O2 (stereo not drawn) [compound 45] | 12.5 (≈ 31.7 µM) | > 200 | 12.5 (≈ 31.7 µM) | > 200 | > 200 | > 200 | 6.25 (≈ 15.9 µM) | > 200 | > 200 | > 200 | 50 (≈ 127 µM) | > 200 | > 200 | > 200 | > 200 | > 200 | > 200 | 100 (≈ 254 µM) | > 200 | 0.78 (≈ 1.98 µM) | MIC [21]: 0.78 µg/mL (≈ 1.98 µM); MIC [22]: > 200 µg/mL; MIC [23]: > 200 µg/mL; MIC [24]: > 200 µg/mL; MIC [25]: < 0.05 µg/mL; MIC [26]: > 200 µg/mL; MIC [27]: > 200 µg/mL; MIC [28]: < 0.2 µg/mL; MIC [29]: 3.13 µg/mL (≈ 7.94 µM); MIC [30]: 3.13 µg/mL (≈ 7.94 µM)
[C-]#[N+]C12CC3(/C=C/C(=O)Nc4cccc(C(F)(F)F)c4)OC3C1O2 (stereo not drawn) [compound 47] | < 0.05 | 0.2 (≈ 0.595 µM) | < 0.05 | 200 (≈ 595 µM) | 200 (≈ 595 µM) | 200 (≈ 595 µM) | < 0.05 | 3.13 (≈ 9.31 µM) | 3.13 (≈ 9.31 µM) | 3.13 (≈ 9.31 µM) | 0.1 (≈ 0.297 µM) | 3.13 (≈ 9.31 µM) | 25 (≈ 74.3 µM) | 0.78 (≈ 2.32 µM) | > 200 | > 200 | > 200 | < 0.05 | > 200 | < 0.05 | MIC [21]: < 0.05 µg/mL; MIC [22]: 50 µg/mL (≈ 149 µM); MIC [23]: > 200 µg/mL; MIC [24]: > 200 µg/mL; MIC [25]: 0.78 µg/mL (≈ 2.32 µM); MIC [26]: 0.39 µg/mL (≈ 1.16 µM); MIC [27]: 3.13 µg/mL (≈ 9.31 µM); MIC [28]: < 0.2 µg/mL; MIC [29]: 1.56 µg/mL (≈ 4.64 µM); MIC [30]: 3.13 µg/mL (≈ 9.31 µM)
[C-]#[N+]C12CC3(/C=C/C(=O)Nc4ccc(C(=O)OC)cc4)OC3C1O2 (stereo not drawn) [compound 49] | < 0.05 | < 0.05 | < 0.05 | 12.5 (≈ 38.3 µM) | 50 (≈ 153 µM) | 50 (≈ 153 µM) | < 0.05 | 0.39 (≈ 1.2 µM) | 0.1 (≈ 0.306 µM) | < 0.05 | < 0.05 | 0.39 (≈ 1.2 µM) | 12.5 (≈ 38.3 µM) | 0.78 (≈ 2.39 µM) | > 200 | > 200 | > 200 | 12.5 (≈ 38.3 µM) | > 200 | < 0.05 | MIC [21]: < 0.05 µg/mL; MIC [22]: < 0.05 µg/mL; MIC [23]: > 200 µg/mL; MIC [24]: 25 µg/mL (≈ 76.6 µM); MIC [25]: < 0.05 µg/mL; MIC [26]: < 0.05 µg/mL; MIC [27]: 25 µg/mL (≈ 76.6 µM); MIC [28]: < 0.2 µg/mL; MIC [29]: 1.56 µg/mL (≈ 4.78 µM); MIC [30]: 3.13 µg/mL (≈ 9.59 µM)
[C-]#[N+]C12CC3(/C=C/C(=O)Nc4cccc(C(=O)OC)c4)OC3C1O2 (stereo not drawn) [compound 50] | 0.2 (≈ 0.613 µM) | 1.56 (≈ 4.78 µM) | 0.39 (≈ 1.2 µM) | 200 (≈ 613 µM) | > 200 | > 200 | 0.39 (≈ 1.2 µM) | 50 (≈ 153 µM) | 25 (≈ 76.6 µM) | 6.25 (≈ 19.2 µM) | 1.56 (≈ 4.78 µM) | 6.25 (≈ 19.2 µM) | > 200 | 6.25 (≈ 19.2 µM) | > 200 | > 200 | > 200 | 1.56 (≈ 4.78 µM) | > 200 | 1.56 (≈ 4.78 µM) | MIC [21]: 0.1 µg/mL (≈ 0.306 µM); MIC [22]: 6.25 µg/mL (≈ 19.2 µM); MIC [23]: > 200 µg/mL; MIC [24]: 200 µg/mL (≈ 613 µM); MIC [25]: < 0.05 µg/mL; MIC [26]: 1.56 µg/mL (≈ 4.78 µM); MIC [27]: 12.5 µg/mL (≈ 38.3 µM); MIC [28]: < 0.2 µg/mL; MIC [29]: 0.79 µg/mL (≈ 2.42 µM); MIC [30]: 1.56 µg/mL (≈ 4.78 µM)

— patent publication US4684664A, “Derivatives of β-(4-isocyano-1,2,3,4-diepoxycyclopentyl) acrylic acid” (Kureha Kagaku Kogyo Kabushiki Kaisha, priority 1984, dated 1987)
